Several values for one entry are separate records, joined by “and”; a condition that tells them apart may be missing. Identical values can stand only once.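 Assay format: 96-well plates, 48-hour exposure. GI50 = concentration required for 50% inhibition of growth. Definition used: TGI = concentration required for complete inhibition of growth.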
Key:
Experiment in all cases: inhibition of tumour cell growth, NCI panel, 48 h
HOP-92 NSCLC = tested on: HOP-92 NSCLC
MALME-3M melanoma = tested on: MALME-3M melanoma
BT-549 breast = tested on: BT-549 breast
OVCAR-3 ovarian = tested on: OVCAR-3 ovarian
SNB-19 CNS = tested on: SNB-19 CNS
OVCAR-5 ovarian = tested on: OVCAR-5 ovarian
HCT-15 colon = tested on: HCT-15 colon
UO-31 renal = tested on: UO-31 renal
OVCAR-4 ovarian = tested on: OVCAR-4 ovarian
RXF 393 renal = tested on: RXF 393 renal

Compound	GI50 (HOP-92 NSCLC) [µM]	TGI (HOP-92 NSCLC) [µM]	GI50 (MALME-3M melanoma) [µM]	TGI (MALME-3M melanoma) [µM]	GI50 (BT-549 breast) [µM]	TGI (BT-549 breast) [µM]	TGI (OVCAR-3 ovarian) [µM]	GI50 (SNB-19 CNS) [µM]	TGI (SNB-19 CNS) [µM]	GI50 (OVCAR-5 ovarian) [µM]	TGI (OVCAR-5 ovarian)	GI50 (HCT-15 colon) [µM]	TGI (HCT-15 colon) [µM]	TGI (UO-31 renal) [µM]	GI50 (OVCAR-4 ovarian) [µM]	TGI (OVCAR-4 ovarian) [µM]	GI50 (RXF 393 renal) [µM]	TGI (RXF 393 renal) [µM]	GI50 (OVCAR-3 ovarian) [µM]	GI50 (UO-31 renal) [µM]
Cc1csc(-c2nnc(Nc3ccc(Oc4ncccc4-c4ccnc(N)n4)cc3)c3ccccc23)c1	> 100	> 100	1.9	> 100	> 100	> 100	> 100	> 100	> 100	> 100	> 100 µM	1.78	> 100	> 100	6.59	> 100	1.51	> 100		
COc1cc(C2CC(C)(O)Oc3cc4c(cc32)OCO4)cc(OC)c1OC (stereo not drawn)		> 100				> 100	0.679		> 100		> 100 µM		> 100			> 100		0.403		
CCCCCCCCCCn1cc[n+](C)c1	2.92	22.6	2.26	17.6	1.56	8.2	8.59	3.96	32.9	2.93	> 100 µM	17.9	> 100	50.7	1.31	> 61.4	2.94	14.2	1.94	10.3
O=C(CCCSc1nc(-c2ccccc2)cc(-c2ccccc2)n1)NO	1.58	6.13	1.95	9.71	2.66	17	6.16	2.67	13.8	1.37	5.64 µM	0.408	11.8	1.27	1.67	14.9	0.525	3.05	1.6	0.274
CC1SC(c2ccc(F)cc2)N(NC(=O)C(O)c2ccccc2)C1=O (stereo not drawn)	> 100	> 100			> 100	> 100	> 100	> 100	> 100	> 100	> 100 µM	> 100	> 100	> 100	> 100	> 100	> 100	> 100	> 100	> 100
COCCOc1ccc(-c2nc3ccc(-c4nc5ccc(N6CCN(C)CC6)cc5[nH]4)cc3[nH]2)cc1	2.16	9.71	0.165	1.55	1.76	3.96	3.13	1.87	10.5	3.59	9.97 µM	38.7	> 100	> 100	0.313	3	1.8	3.63	0.621	29.4
Nc1n[nH]c2cccc(C#Cc3cccc(C(=O)Nc4ccc(CN5CCOCC5)c(C(F)(F)F)c4)c3)c12	1.12	4.29	0.446	2.69	2.14	6.03	12.6	3.36	35.5	2.52	19.8 µM	2.56	9.32	5.82	2.15	6.88	1.53	3.44	3.48	1.9
O=C1CCCCN1c1ccccc1C#C/C=C\C#Cc1ccccc1C(F)(F)F	10.7	43.1	2.29	39.2	2.59	14.5	2.4	> 50	> 50	3.35	> 50 µM	1.53	6.05	13.6	3.6	19.1	0.526	2.73	0.879	2
CN1CC[C@@H](NC(=O)Nc2ccc(C#N)cc2)C[C@@H]1c1nc2ccccc2[nH]1	35.9	> 100	> 100	> 100	> 100	> 100	> 100	> 100	> 100	> 100	> 100 µM	> 100	> 100	> 100	100	> 100	40.5	> 100	> 100	> 78.1
CN(C)CC1CC/C(=C\c2ccc(O)cc2)C1=O (stereo not drawn)		5.82		6.62		3.73	8.33		31.3		31.6 µM		5.48	26.5		18.5		4.8		
CC1=C2C(=C[C@@](C)(CO)[C@@H]2O)C(=O)[C@](C)(O)C12CC2		0.061		0.0243		0.0518			0.0921		0.0664 µM and 0.0689 µM		0.0344	0.0422		0.0267		0.018		
O=CNc1ccc2c(c1)C(=O)c1ccccc1-2		> 100				> 100	> 100		> 100		> 100 µM		> 100	> 100		> 100		> 100		
CCCCCCCCCCCCC(O)c1ccc(C#CCCCCCCCCCO)o1 (stereo not drawn)	19.8	37.9			21.7	42.3	34	31.7	83.1	20.9	39.2 µM	18.2	36.8	38.5	45.1	> 100	17.9	35.3	19.1	19.9
COC[C@H]1Cn2cc(-c3nc(Nc4ccnn4C)ncc3C)nc2C(=O)N1Cc1ccc(F)c(F)c1	0.21	> 26.4			48.9	> 100	> 100	> 100	> 100	0.103	> 100 µM	28.3	> 100	> 86.6	17.8	> 100	1.66	> 100	60.6	2.66

From PubChem BioAssay (NCI)
